One experiment deals with MDA-MB-231 cells. Description: label-free SERS mapping with PLS-DA of living cells treated with PTX dosages. Format: cell-based, human. Particulars: 1.5 nM PTX, MDA-MB-231, PLS-DA after ERS calibration.
In a further experiment the test system is HCC-1806. The conditions noted are these: HCC-1806 triple-negative breast cancer cells; read-out: half-maximal inhibition concentration (IC50); cited from earlier work.
The subject of another experiment is HCC-1806 cells. Description: label-free SERS mapping with PLS-DA of living cells treated with PTX dosages. In kind it is cell-based, human. The conditions noted are these: 1.5 nM, 5 nM and 15 nM PTX, HCC-1806, after ERS calibration.

For the compound `CC(=O)O[C@H]1C(=O)[C@@]2(C)[C@H]([C@H](OC(=O)c3ccccc3)[C@]3(O)C[C@H](OC(=O)[C@H](O)[C@@H](NC(=O)c4ccccc4)c4ccccc4)C(C)=C1C3(C)C)[C@]1(OC(C)=O)CO[C@@H]1C[C@@H]2O` [PTX, paclitaxel], in the experiment with MDA-MB-231 cells, the “changes of SERS-measured molecular profiles versus control group (0 nM)” value is on record as “not enough to elicit significant changes”. Further, the IC50 with HCC-1806 is 1.5 nM. Moreover, the “separation of PLS-DA scatters of control group (0 nM) from PTX treated groups” value in the experiment on HCC-1806 cells is on record as “completely separate”.

These data come from patent publication US20240142382A1, “METHODS AND COMPOSITIONS FOR CALIBRATED LABEL-FREE SURFACE-ENHANCED RAMAN SPECTROSCOPY” (Virginia Tech Intellectual Properties, Inc., priority 2021, published 2024).
